Measurements taken from patent US10093670B2, “Azabenzimidazole derivative having AMPK-activating activity” (Shionogi & Co., Ltd., priority 2011, dated 2018).

What was measured:
Human AMPK α2β2γ1 = molecular target: T1, Human AMPK α2β2γ1 (Homo sapiens, UniProt O43741+P54646); assay: Evaluation of AMPK activator, Test Example 2 (CaMKK2-phosphorylated enzyme, mobility-shift kinase assay); type: biochemical; details: for EC150 (compound concentration showing 150% relative to the control (100%)): human AMPK α2β2γ1 phosphorylated by CaMKK2, 25° C., 2 hours; for Emax: human AMPK α2β2γ1 phosphorylated by CaMKK2, relative to control (100%), read-out: Emax (maximum rate of increase in activity within the measurement range)
T1 construct: The full length cDNAs of human AMPK β2 (NM_005399.3) and human AMPK α2 (NM_006252.3) were inserted; the full length cDNA of human AMPK γ1 (NM_002733.3) had been inserted into pET28b(+); 6xHis (N); made in house; host or cells: Escherichia coli BL21 CodonPlus (DE3)-RIL (AMPK); BL21 Star (DE3) (CaMKKβ)
T1 sequence (P54646 whole entry): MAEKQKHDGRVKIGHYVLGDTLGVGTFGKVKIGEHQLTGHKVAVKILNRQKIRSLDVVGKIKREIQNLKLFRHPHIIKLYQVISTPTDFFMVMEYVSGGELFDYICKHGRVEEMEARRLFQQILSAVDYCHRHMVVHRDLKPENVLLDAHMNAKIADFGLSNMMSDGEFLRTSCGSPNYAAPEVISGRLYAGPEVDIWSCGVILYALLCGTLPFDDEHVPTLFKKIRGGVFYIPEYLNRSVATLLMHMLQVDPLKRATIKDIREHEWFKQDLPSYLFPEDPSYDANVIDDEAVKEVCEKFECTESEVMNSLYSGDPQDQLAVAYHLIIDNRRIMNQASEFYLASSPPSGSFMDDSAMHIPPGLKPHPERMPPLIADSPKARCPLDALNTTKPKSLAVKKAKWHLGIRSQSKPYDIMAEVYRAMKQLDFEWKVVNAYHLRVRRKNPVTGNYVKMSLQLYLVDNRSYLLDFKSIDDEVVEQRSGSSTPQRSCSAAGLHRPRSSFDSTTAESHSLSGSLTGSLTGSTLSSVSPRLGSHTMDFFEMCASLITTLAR
T1 sequence (O43741 whole entry): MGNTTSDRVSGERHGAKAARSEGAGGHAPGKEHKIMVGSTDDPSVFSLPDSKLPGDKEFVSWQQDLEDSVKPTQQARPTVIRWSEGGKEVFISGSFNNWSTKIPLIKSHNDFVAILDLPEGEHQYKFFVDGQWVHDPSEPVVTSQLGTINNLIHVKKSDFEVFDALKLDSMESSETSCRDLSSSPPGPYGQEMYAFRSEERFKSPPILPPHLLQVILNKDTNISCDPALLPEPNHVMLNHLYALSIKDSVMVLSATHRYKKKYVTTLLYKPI
T1 sequence (P54619 whole entry partner): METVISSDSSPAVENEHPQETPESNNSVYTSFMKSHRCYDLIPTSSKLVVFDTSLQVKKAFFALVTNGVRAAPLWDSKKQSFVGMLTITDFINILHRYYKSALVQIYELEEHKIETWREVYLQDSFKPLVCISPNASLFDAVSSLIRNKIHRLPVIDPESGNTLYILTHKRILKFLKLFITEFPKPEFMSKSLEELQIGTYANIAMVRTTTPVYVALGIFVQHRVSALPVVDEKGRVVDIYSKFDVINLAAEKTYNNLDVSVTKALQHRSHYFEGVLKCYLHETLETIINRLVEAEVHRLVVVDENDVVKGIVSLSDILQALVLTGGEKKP
Procedure: The full length cDNAs of human AMPK β2 (NM_005399.3) and human AMPK α2 (NM_006252.3) were inserted into the MCS1 and MCS2 of the pETDuet-1 vector to prepare a human AMPK β2 and human AMPK α2 (6× His tag at the 5′ terminus) expressing plasmid. The plasmid was contransfected with an expression plasmid, in which the full length cDNA of human AMPK γ1 (NM_002733.3) had been inserted into pET28b(+), into BL21 CodonPlus (DE3)-RIL to obtain an expression strain. The expression strain was cultured in TB medium, followed by induction with 0.5 mM IPTG, and cultured at 25° C. for 3 hours and then harvested. After ultrasonication, supernatant was collected and applied to Histrap FF column (GE) and RESOUECE Q column (GE) to prepare 12.5 mg of purified sample containing three types of subunit from 1.8 L of broth.
An expression vector, in which the full length cDNA of human CAMKK β (NM_172226.1) had been inserted into pGEX-6P-3, was transfected into BL21 Star (DE3). The expression strain was cultured in TB medium, followed by induction with 0.5 mM IPTG, and cultured at 25° C. for 3 hours and then harvested. After ultrasonication, supernatant was collected and applied to GSTrap FF column (GE) to prepare 14 mg of GST-fused CAMKK β from 720 ml of broth.
Evaluation Method of an Activator for AMP-activated Protein Kinase (AMPK) (Test Example 2)
Thus, phosphorylation treatment was carried out as pretreatment.
Human AMPK α2β2γ1 in an amount to give a conversion rate of approximately 10% by reaction for 2 hours, and CaMKK2 in an amount capable of sufficiently imparting activity to AMPK for one hour were mixed in a buffer solution consisting of a 50 mM HEPES-NaOH buffer solution (pH 7.0), 100 mM NaCl, 5 mM magnesium chloride, 0.1% bovine serum albumin, 0.2 mM sodium orthovanadate(V), 1 mM ethylene glycol-bis(2-aminoethyl ether)-N,N,N′,N′-tetraacetic acid (EGTA), 5 mM disodium β-glycerophosphate, 1 mM dithiothreitol and 0.2 mM ATP, and the obtained liquid was left to stand at 25° C. for 1 to 1.5 hours to sufficiently phosphorylate AMPK.
After that, to the enzyme liquid, which had been subjected to phosphorylation treatment, a compound dissolved in DMSO was added so as to have a 1% DMSO concentration. The obtained liquid was left to stand for 10 minutes.
To the liquid, a substrate solution consisting of a 50 mM HEPES-NaOH buffer solution (pH 7.0), 100 mM NaCl, 10 mM magnesium chloride, 0.1% bovine serum albumin, 0.2 mM sodium orthovanadate(V), 1 mM ethylene glycol-bis(2-aminoethyl ether)-N,N,N′,N′-tetraacetic acid (EGTA), 5 mM disodium β-glycerophosphate, 2 mM dithiothreitol, 0.4 mM ATP and 3 μM FL-Peptide 7 (manufactured by Caliper Life Sciences, Inc.) was added in equal amount (10 μl in total). The obtained liquid was allowed to react at 25° C. for 2 hours, and 10 μl of 20 mM EDTA was then added thereto to stop the reaction.
(§1) To detect phosphorylated fluorescent substrates, the reaction liquid was applied to a measuring device, LabChip EZ Reader II manufactured by Caliper Life Science, Inc., for detecting fluorescence by using differences in mobility due to differences in charge. The setting conditions for the device were pressure, −1.5 PSI; upstream voltage, −2250 V; downstream voltage, −400 V; post sample buffer sip time, 40 seconds; final delay, 120 seconds; and peak order, Product First.
(§2) A conversion rate was calculated from the peak heights of the resulting substrate and product. The conversion rate when not containing a compound was used as a control, and a concentration dependent curve was made by plotting the rate of increase in activity to the control at each concentration of a compound.

human AMPK α1β1γ1 enzyme = molecular target: T2, human AMPK α1β1γ1 enzyme (Homo sapiens, UniProt Q13131+Q9Y478); assay: Evaluation of AMPK activator, Test Example 1 (mobility-shift kinase assay, FL-Peptide 7); type: biochemical; details: for EC150 (compound concentration showing 150% relative to the control (100%)): human AMPK α1β1γ1, 25° C., 2 hours, 0.2 mM ATP final; for Emax: read-out: Emax (maximum rate of increase in activity within the measurement range)
T2 construct: purchased Carna Biosciences, Inc
T2 sequence (Q13131 10-559 limits assumed): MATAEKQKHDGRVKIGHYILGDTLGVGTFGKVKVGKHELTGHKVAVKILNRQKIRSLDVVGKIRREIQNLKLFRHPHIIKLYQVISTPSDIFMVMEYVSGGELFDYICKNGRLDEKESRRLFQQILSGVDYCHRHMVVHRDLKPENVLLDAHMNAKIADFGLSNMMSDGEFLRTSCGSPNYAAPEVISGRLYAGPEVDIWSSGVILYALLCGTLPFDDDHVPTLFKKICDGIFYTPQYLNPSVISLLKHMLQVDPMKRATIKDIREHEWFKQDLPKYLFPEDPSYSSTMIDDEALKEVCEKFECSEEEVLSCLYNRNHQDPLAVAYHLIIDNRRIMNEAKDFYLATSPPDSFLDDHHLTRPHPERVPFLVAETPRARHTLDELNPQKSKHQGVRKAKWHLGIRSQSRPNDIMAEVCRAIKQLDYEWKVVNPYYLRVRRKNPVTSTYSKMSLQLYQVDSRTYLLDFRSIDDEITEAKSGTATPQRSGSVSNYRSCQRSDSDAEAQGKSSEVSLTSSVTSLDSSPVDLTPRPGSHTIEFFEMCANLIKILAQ
T2 sequence (Q9Y478 whole entry): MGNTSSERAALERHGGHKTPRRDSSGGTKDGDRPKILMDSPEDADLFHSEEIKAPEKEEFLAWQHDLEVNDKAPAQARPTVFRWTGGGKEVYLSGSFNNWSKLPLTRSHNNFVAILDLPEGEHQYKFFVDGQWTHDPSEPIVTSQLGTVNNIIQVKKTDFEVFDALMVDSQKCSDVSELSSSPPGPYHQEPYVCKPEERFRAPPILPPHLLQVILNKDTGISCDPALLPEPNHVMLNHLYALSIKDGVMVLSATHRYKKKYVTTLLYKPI
T2 sequence (P54619 whole entry partner): as the sequence (P54619 whole entry partner) above
Procedure: The obtained liquid was left to stand for 10 minutes.
The obtained liquid was allowed to react at 25° C. for 2 hours, and 10 μl of 20 mM EDTA was then added thereto to stop the reaction.
as §1, §2

[1] = human AMPK α1β1γ1, relative to control (100%)

| Structure (SMILES) | EC150 (compound concentration showing 150% relative to the control (100%)) (Human AMPK α2β2γ1) [nM] | Emax (Human AMPK α2β2γ1) [%] | EC150 (compound concentration showing 150% relative to the control (100%)) (human AMPK α1β1γ1 enzyme) [nM] | Emax (human AMPK α1β1γ1 enzyme; [1]) [%] | Emax (maximum rate of increase in activity within the measurement range) (human AMPK α1β1γ1 enzyme; [1]) [%] |
| --- | --- | --- | --- | --- | --- |
| CC(C)(C(=O)O)[C@H]1CC[C@H](Oc2nc3nc(-c4c(F)cc(N5CCOCC5)cc4F)ccc3[nH]2)CC1 [Compound I-3-40] | 69 | 228 | 23 | 244 | – |
| CC(C)(C(=O)O)[C@]1(O)CC[C@@H](Oc2nc3nc(-c4ccc(N5CCCC5)cc4)c(Cl)cc3[nH]2)CC1 [Compound I-3-30] | 12 | 271 | 0.49 | 345 | – |
| NC(=O)c1ccc(-c2ccc(-c3nc4nc(O[C@H]5CC[C@H](C(=O)O)CC5)[nH]c4cc3Cl)cc2)cc1 [Compound I-3-120] | 7 | 262 | 28 | 216 | – |
| CC(C)(C(=O)O)[C@H]1CC[C@H](Oc2nc3nc(-c4ccc(C5=CCN(C(=O)CO)CC5)cc4)c(Cl)cc3[nH]2)CC1 [Compound I-3-90] | 21 | 274 | 17 | 320 | – |
| CC(C)(C(=O)O)[C@]1(O)CC[C@@H](Oc2nc3nc(-c4ccc(N5CCOCC5)cc4)c(Cl)cc3[nH]2)CC1 [Compound I-3-24] | 11 | 271 | 0.79 | – | 318 |
| CC(Oc1nc2nc(-c3ccc(N4CCCC4)cc3)c(Cl)cc2[nH]1)c1cc(O)no1 (centres unmarked) [Compound I-2-112] | 74 | 269 | 25 | 246 | – |
| CC(C)(C(=O)O)C1CCC(Oc2nc3nc(-c4ccc(C5(CO)CC5)cc4)c(Cl)cc3[nH]2)CC1 (centres unmarked) [Compound I-3-37] | 5 | 237 | 5.6 | 257 | – |
| CC(C)(C(=O)O)[C@]1(F)CC[C@@H](Oc2nc3nc(-c4ccc(N5CCOCC5)cc4)c(Cl)cc3[nH]2)CC1 [Compound I-3-99] | 15 | 261 | 3.7 | 310 | – |
